Data reported in US20250059183A1, “PYRIDINE[4,3-D]PYRIMIDINE COMPOUND AS TLR7/8 AGONIST” (SHANGHAI VISONPHARMA CO., LTD., priority 2021, published 2025).

Tests used:
human TLR7 = biological target: T1, human TLR7 (Homo sapiens, UniProt Q9NYK1); test: HEK-Blue hTLR7 SEAP reporter gene agonist assay; format: cell-based; settings: HEK-Blue hTLR7 cells, 16 to 22 hours incubation
T1 construct: host or cells: HEK-Blue hTLR7 (HEK293-derived reporter cells)
T1 sequence (Q9NYK1 27-1049): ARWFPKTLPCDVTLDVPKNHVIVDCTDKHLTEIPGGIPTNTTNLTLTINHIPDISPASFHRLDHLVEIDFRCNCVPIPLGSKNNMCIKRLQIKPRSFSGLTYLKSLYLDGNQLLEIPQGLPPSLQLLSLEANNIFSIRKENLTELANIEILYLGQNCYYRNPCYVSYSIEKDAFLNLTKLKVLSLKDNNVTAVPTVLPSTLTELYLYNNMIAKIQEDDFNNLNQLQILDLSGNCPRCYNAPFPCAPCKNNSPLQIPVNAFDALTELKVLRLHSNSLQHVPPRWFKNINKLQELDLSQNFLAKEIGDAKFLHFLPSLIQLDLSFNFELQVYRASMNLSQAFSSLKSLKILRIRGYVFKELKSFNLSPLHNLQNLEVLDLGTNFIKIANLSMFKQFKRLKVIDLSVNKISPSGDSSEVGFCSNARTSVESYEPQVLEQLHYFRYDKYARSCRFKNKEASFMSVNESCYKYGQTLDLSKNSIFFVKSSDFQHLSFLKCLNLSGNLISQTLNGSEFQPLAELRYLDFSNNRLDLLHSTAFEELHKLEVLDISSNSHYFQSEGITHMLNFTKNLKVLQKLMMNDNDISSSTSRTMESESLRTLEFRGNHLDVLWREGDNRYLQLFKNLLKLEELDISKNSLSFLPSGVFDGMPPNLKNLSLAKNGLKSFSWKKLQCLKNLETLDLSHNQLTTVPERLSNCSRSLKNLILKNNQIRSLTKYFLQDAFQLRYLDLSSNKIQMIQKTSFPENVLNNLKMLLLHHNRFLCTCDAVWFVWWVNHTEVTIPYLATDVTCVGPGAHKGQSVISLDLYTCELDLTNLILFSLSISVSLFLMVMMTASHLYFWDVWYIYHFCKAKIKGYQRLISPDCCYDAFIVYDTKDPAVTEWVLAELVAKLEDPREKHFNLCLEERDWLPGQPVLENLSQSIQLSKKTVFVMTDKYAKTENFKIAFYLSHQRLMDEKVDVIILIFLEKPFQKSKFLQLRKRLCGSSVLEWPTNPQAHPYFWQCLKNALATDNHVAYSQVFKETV
Protocol: (§1) HEK-Blue™ cells that stably express human TLR7 or TLR8 are used to evaluate the agonistic activity of the compounds on TLR7 or TLR8, which is determined by the induction of the expression of SEAP reporter gene under the control of minimum IFN-β promoter fusion to 5×NF-κB and AP-1 binding sites. The assay is conducted as below:
(§2) HEK-Blue™ hTLR7 (Invivogen, 80,000 cells per well) or HEK-Blue™ hTLR8 (Invivogen, 60,000 cells per well) were added to the 96-well cell culture plate, followed by adding of the test compound. The final concentration of the test compound in the medium ranged from […], and was incubated for 16 to 22 hours. According to the manufacturer's instructions, the HEK-Blue assay reagent Quanti-blue (Invivogen) was used to measure SEAP levels in cell media. Optical density at 650 nm (OD650) was measured by Neo2 multifunction plate reader (Bio-tek). The half effective concentration (EC50) was calculated using GraphPad Prism.

human TLR8 = biological target: T2, human TLR8 (Homo sapiens, UniProt Q9NR97); test: HEK-Blue hTLR8 SEAP reporter gene agonist assay; format: cell-based; settings: HEK-Blue hTLR8 cells, 16 to 22 hours incubation
T2 construct: host or cells: HEK-Blue hTLR8 (HEK293-derived reporter cells)
T2 sequence (Q9NR97 27-1041): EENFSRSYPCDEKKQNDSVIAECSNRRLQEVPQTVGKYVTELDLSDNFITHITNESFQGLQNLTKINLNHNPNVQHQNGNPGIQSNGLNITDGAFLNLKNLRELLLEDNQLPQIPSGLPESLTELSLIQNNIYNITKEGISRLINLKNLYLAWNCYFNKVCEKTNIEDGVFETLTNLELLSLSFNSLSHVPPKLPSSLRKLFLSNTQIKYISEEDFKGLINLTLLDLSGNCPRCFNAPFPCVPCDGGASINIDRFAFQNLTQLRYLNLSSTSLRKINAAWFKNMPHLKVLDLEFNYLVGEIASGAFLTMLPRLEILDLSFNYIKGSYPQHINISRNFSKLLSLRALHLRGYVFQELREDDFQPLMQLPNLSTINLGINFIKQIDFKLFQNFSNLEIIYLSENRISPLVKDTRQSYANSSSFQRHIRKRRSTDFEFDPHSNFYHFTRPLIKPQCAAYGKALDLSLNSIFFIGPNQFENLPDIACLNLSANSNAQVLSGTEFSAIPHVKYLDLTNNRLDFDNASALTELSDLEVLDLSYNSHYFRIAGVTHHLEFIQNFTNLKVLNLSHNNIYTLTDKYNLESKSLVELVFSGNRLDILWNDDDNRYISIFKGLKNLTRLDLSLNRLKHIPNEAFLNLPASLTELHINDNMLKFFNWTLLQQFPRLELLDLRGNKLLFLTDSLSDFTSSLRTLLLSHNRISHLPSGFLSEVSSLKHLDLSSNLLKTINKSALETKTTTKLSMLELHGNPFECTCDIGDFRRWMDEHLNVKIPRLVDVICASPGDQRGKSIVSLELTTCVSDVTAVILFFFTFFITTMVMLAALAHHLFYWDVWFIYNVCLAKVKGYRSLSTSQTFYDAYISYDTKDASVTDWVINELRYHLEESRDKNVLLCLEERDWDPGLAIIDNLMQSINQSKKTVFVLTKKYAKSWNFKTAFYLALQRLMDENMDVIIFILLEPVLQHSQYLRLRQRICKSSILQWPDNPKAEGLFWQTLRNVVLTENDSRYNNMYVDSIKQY
Protocol: as §1, §2

Row | SMILES | EC50 (human TLR7) [nM] | EC50 (human TLR8) [nM]
1 | CCCC(CCC)Nc1nc(N)nc2ccn(Cc3ccc(C(=O)N4CCNCC4)cc3OC)c(=O)c12 [Compound I-132, 2-amino-4-(heptan-4-ylamino)-6-(2-methoxy-4-(piperazine-1-carbonyl)benzyl)pyrido[4,3-d]pyrimidin-5(6H)-one] | 84 | 660
2 | CCCC(CCOC(=O)C(F)(F)F)Nc1nc(N)nc2ccn(Cc3ccc(CN4CCCC4)cc3)c(=O)c12 (centres unmarked) [Compound I-96, 3-((2-amino-5-oxo-6-(4-(pyrrolidin-1-ylmethyl)benzyl)-5,6-dihydropyrido[4,3-d]pyrimidin-4-yl)amino)hexyl 2,2,2-trifluoroacetate] | 50 | 31
3 | CCCCNc1nc(N)nc2ccn(Cc3ccc(C(=O)N4CCN(C)CC4)c(OC)c3)c(=O)c12 [Compound I-79, 2-amino-4-(butylamino)-6-(3-methoxy-4-(4-methylpiperazine-1-carbonyl)benzyl)pyrido[4,3-d]pyrimidin-5(6H)-one] | 87 | 105
4 | CCC[C@@H](CCO)Nc1nc(N)nc2ccn(Cc3ccc(CN4CC5(COC5)C4)cc3)c(=O)c12 [Compound I-142, (S)-6-(4-((2-oxa-6-azaspiro[3.3]heptan-6-yl)methyl)benzyl)-2-amino-4-((1-hydroxyhexan-3-yl)amino)pyrido[4,3-d]pyrimidin-5(6H)-one] | 70 | 40
5 | CCC[C@@H](C)Nc1nc(N)nc2ccn(Cc3ccc(CN(CCO)CCO)cc3)c(=O)c12 [Compound I-141, (R)-2-amino-6-(4-((bis(2-hydroxyethyl)amino)methyl)benzyl)-4-(pentan-2-ylamino)pyrido[4,3-d]pyrimidin-5(6H)-one] | 50 | 20
6 | CCC[C@@H](CO)Nc1nc(N)nc2ccn(Cc3ccc(CN4CCCC4)cc3Cl)c(=O)c12 [Compound I-168, (S)-2-amino-6-(2-chloro-4-(pyrrolidin-1-ylmethyl)benzyl)-4-((1-hydroxypentan-2-yl)amino)pyrido[4,3-d]pyrimidin-5(6H)-one] | 40 | 10
7 | CCC[C@@H](C)Nc1nc(N)nc2ccn(Cc3ccc(CN4CCN(CCO)CC4)cc3)c(=O)c12 [Compound I-148, (R)-2-amino-6-(4-((4-(2-hydroxyethyl)piperazin-1-yl)methyl)benzyl)-4-(pentan-2-ylamino)pyrido[4,3-d]pyrimidin-5(6H)-one] | 40 | 40
8 | CCCCNc1nc(N)nc2ccn(Cc3ccc(C(=O)N4C5CNCC4C5)cc3)c(=O)c12 [Compound I-65, 6-(4-(3,6-diazabicyclo[3.1.1]heptane-6-carbonyl)benzyl)-2-amino-4-(butylamino)pyri do[4,3-d]pyrimidin-5(6H)-one] | 203 | 64
9 | CCCCNc1nc(N)nc2cc(C)n(Cc3ccc(CN4CCCC4)cc3)c(=O)c12 [Compound I-187, 2-amino-4-(butylamino)-7-methyl-6-(4-(pyrrolidin-1-ylmethyl)benzyl)pyrido[4,3-d]pyrimidin-5(6H)-one] | 145 | 64
10 | CCC[C@@H](C)Nc1nc(N)nc2ccn(Cc3ccc(OCCNC)nc3)c(=O)c12 [Compound I-153, (R)-2-amino-6-((6-(2-(methylamino)ethoxy)pyridin-3-yl)methyl)-4-(pentan-2-ylamino)pyrido[4,3-d]pyrimidin-5(6H)-one] | 90 | 40
11 | CCC[C@@H](CO)Nc1nc(N)nc2ccn(Cc3ccc(C(=O)N4CCN(C)CC4)cc3OC)c(=O)c12 [Compound I-212, (S)-2-amino-4-((1-hydroxypentan-2-yl)amino)-6-(2-methoxy-4-(4-methylpiperazine-1-carbonyl)benzyl)pyrido[4,3-d]pyrimidin-5(6H)-one] | 60 | 4
12 | CCC[C@@H](C)Nc1nc(N)nc2ccn(Cc3ccc(CN4CCN(CCCO)CC4)cc3OC)c(=O)c12 [Compound I-216, (R)-2-amino-6-(4-((4-(3-hydroxypropyl)piperazin-1-yl)methyl)-2-methoxybenzyl)-4-(pentan-2-ylamino)pyrido[4,3-d]pyrimidin-5(6H)-one] | 63 | 40
13 | CCCCNc1nc(N)nc2ccn(Cc3ccc(CN4CCCC4)cc3)c(=O)c12 [Compound I-1, 2-amino-4-(butylamino)-6-(4-(pyrrolidin-1-ylmethyl)benzyl)pyrido[4,3-d]pyrimidin-5(6H)-one] | 81 | 58
14 | CCC[C@@H](CO)Nc1nc(N)nc2ccn(Cc3ccc(CN4CCCC4)cc3OC)c(=O)c12 [Compound I-158, (S)-2-amino-4-((1-hydroxypentan-2-yl)amino)-6-(2-methoxy-4-(pyrrolidin-1-ylmethyl)benzyl)pyrido[4,3-d]pyrimidin-5(6H)-one] | 10 | 4
15 | CCCC(CCO)Nc1nc(N)nc2ccn(Cc3ccc(CN4CCCC4)cc3)c(=O)c12 (centres unmarked) [Compound I-95, 2-amino-4-((1-hydroxyhexan-3-yl)amino)-6-(4-(pyrrolidin-1-ylmethyl)benzyl)pyrido[4,3-d]pyrimidin-5(6H)-one] | 65 | 46
16 | CCCCNc1nc(N)nc2ccn(Cc3ccc(CN4CC5(COC5)C4)cc3)c(=O)c12 [Compound I-52, 6-(4-((2-oxa-6-azaspiro[3.3]heptan-6-yl)methyl)benzyl)-2-amino-4-(butylamino)pyri do[4,3-d]pyrimidin-5(6H)-one] | 83 | 56
17 | CCC[C@@H](C)Nc1nc(N)nc2ccn(Cc3ccc(CN(C)CCO)cc3)c(=O)c12 [Compound I-139, (R)-2-amino-6-(4-(((2-hydroxyethyl)(methyl)amino)methyl)benzyl)-4-(pentan-2-ylamino)pyrido[4,3-d]pyrimidin-5(6H)-one] | 30 | 20
18 | CCCCNc1nc(N)nc2ccn(Cc3ccc(C(=O)N4CCN(C)CC4)cc3)c(=O)c12 [Compound I-63, 2-amino-4-(butylamino)-6-(4-(4-methylpiperazine-1-carbonyl)benzyl)pyrido[4,3-d]pyrimidin-5(6H)-one] | 82 | 
